In test [1] the test system is A10. Put plainly: Disruption of actin cytoskeleton in rat A10 cells assessed as generation of binucleated cells at 7.3 nM after 24 hrs by TRITC-phalloidin assay. In kind it is functional, cell-based.
The subject of test [2] is Candida albicans. Nature of the test: Antifungal activity against wild-type Candida albicans. The class given is functional.
For the next test, the system named is HCT-116. Put plainly: Cytotoxicity against human HCT116 cells after 72 hrs by MTS reduction assay. In kind it is functional, cell-based. The following applies: HCT-116, 72 h.
The subject of test [3] is Candida albicans. Put plainly: Antifungal activity against amphotericin B-resistant Candida albicans. In kind it is functional.
For test [4], the system named is A10. Put plainly: Disruption of actin cytoskeleton in rat A10 cells assessed as generation of binucleated cells at 70 nM after 24 hrs by TRITC-phalloidin assay. The class given is functional, cell-based.

The term MIC denotes the smallest concentration in the dilution series that meets the test's criterion for growth inhibition. Higher therefore signals a need for much substance. The IC50 is the point on the concentration scale where inhibition reaches its midpoint.

Molecules are shown by their SMILES. Values after ≈ are worked out from the molar mass of the structure shown. Values joined by “and” are separate entries in the source; they are usually repeats but may differ in a detail not shown here. Equal entries are not always repeated. Active and inactive are the calls of the source.

As to `CO[C@H]1C[C@H](CC[C@H](C)[C@H](O)[C@H](C)[C@H]2OC(=O)/C=C/C(C)=C/C[C@H](O)C[C@@H]3C=CC[C@@H](C[C@H](OC)[C@@H](C)[C@@H](O)C[C@@H](O)[C@H](C)[C@@H]([C@@H](C)[C@@H](O)[C@@H](C)CC[C@H]4C[C@H](OC)C[C@H](C)O4)OC(=O)/C=C/C(C)=C/C[C@H](O)C[C@@H]4C=CC[C@@H](C[C@H](OC)[C@@H](C)[C@@H](O)C[C@@H](O)[C@@H]2C)O4)O3)O[C@@H](C)C1`, in the test with A10 [1], the result was Active.
In the test on Candida albicans [2], `C[C@@H]1[C@H](O)[C@@H](C)/C=C/C=C/C=C/C=C/C=C/C=C/C=C/[C@H](O[C@@H]2O[C@H](C)[C@@H](O)[C@H](N)[C@@H]2O)C[C@@H]2O[C@](O)(C[C@@H](O)C[C@@H](O)[C@H](O)CC[C@@H](O)C[C@@H](O)CC(=O)O[C@H]1C)C[C@H](O)[C@H]2C(=O)O` [AMPHOTERICIN B] registered an MIC of 1.56 µg/mL (≈ 1.69 µM).
As for `CO[C@H]1C[C@H](CC[C@H](C)[C@H](O)[C@H](C)[C@H]2OC(=O)/C=C/C(C)=C/C[C@H](O)C[C@@H]3C=CC[C@@H](C[C@H](OC)[C@@H](C)[C@@H](O)C[C@@H](O)[C@H](C)[C@@H]([C@@H](C)[C@@H](O)[C@@H](C)CC[C@H]4C[C@H](OC)C[C@H](C)O4)OC(=O)/C(C)=C/C[C@H](O)C[C@@H]4C=CC[C@@H](C[C@H](OC)[C@@H](C)[C@@H](O)C[C@@H](O)[C@@H]2C)O4)O3)O[C@@H](C)C1` [HURGHADOLIDE A], the MIC in the test on Candida albicans [2] and in the test on Candida albicans [3] was 31.3 µg/mL (≈ 22.9 µM) in each case. Also, in the test on HCT-116, the IC50 is 365 nM and 0.5 µg/mL.
In the case of `CO[C@@H]1C[C@H](C)O[C@@H](C(O)C[C@H](C)[C@H](O)[C@H](C)[C@H]2OC(=O)/C=C/C(C)=C/C[C@H](O)C[C@@H]3C=CC[C@@H](C[C@H](OC)[C@@H](C)[C@@H](O)C[C@@H](O)[C@H](C)[C@@H]([C@@H](C)[C@@H](O)[C@@H](C)CC[C@H]4C[C@H](OC)C[C@H](C)O4)OC(=O)/C=C/C(C)=C/C[C@H](O)C[C@@H]4C=CC[C@@H](C[C@H](OC)[C@@H](C)[C@@H](O)C[C@@H](O)[C@@H]2C)O4)O3)C1` (some centres undefined) [Swinholide I], the figures for the MIC against Candida albicans [2] and in the test with Candida albicans [3] were 62.2 µg/mL (≈ 44.2 µM) and 500 µg/mL (≈ 356 µM), respectively. Besides, the IC50 in the test on HCT-116 was 5.6 nM and 0.008 µg/mL. Further, the outcome in the test with A10 [4] was Active.

These data come from ChEMBL document CHEMBL1157239, “Hurghadolide A and swinholide I, potent actin-microfilament disrupters from the Red Sea sponge Theonella swinhoei” (J Nat Prod, 2006).
